Data on 1 compound can be found in US20260157378A1, “PROCESS FOR THE PREPARATION OF COMPOSITIONS BASED ON AMINO ACIDS AND PEPTIDES OF ANIMAL ORIGIN AND IODINE, COMPOSITIONS THUS OBTAINED AND USE THEREOF” (SICIT GROUP S.P.A., priority 2022, published 2026).

The subject of experiment [1] is lettuce plants (Lactuca sativa L.) var. Sant'Anna. Description: Application of the iodine formulation by foliar application (foliar spray), iodine content by optical emission spectrometry. The class given is in vivo. Particulars: foliar spray at transplantation and after 7 days, 30 μg iodine/plant, harvested after 15 days, lettuce aerial part. How it is done:
(§1) The seeds of the selected species were germinated within germination trays filled with a growth substrate composed by vernalized black peat and blond sphagnum peat (Agrofino Professional) and placed in a growth chamber.
(§2) The germinated seedlings were grown until the 2nd real leaf stage. Later, the growth substrate portion wherein the roots were confined was extracted and a gentle washing was carried out in order to remove the whole substrate and thus obtain a free root seedling ready to be placed in hydroponics, for the test of root application. The plants were transplanted in 0.35 L pots for the foliar application test.
The plants were grown for 15 days in 0.35 L pots, containing universal topsoil based on vernalized black peat and blond sphagnum, in controlled conditions in a growth chamber: • 07.00-12.00: T 24° C., RH (Relative humidity) 60%, Light Int. 300 μmol/m^2/s; • 12.00-16.00: T 25° C., RH 60%, Light Int. 400 μmol/m^2/s; • 16.00-20.00: T 24° C., RH r 60%, Light Int. 300 μmol/m^2/s; • 20.00-07.00: T 23° C., RH 60%, Light Int. 0 μmol/m^2/s.
The formulations (iodine salts and formulation object of the invention) were applied during transplantation and after 7 days, by foliar spray, delivering 5 ml of applicative solution according to Example 1 to each plant. In both treatments, the applied iodine amount was the same: 30 μg/plant. […]

Experiment [2] shares this test system. In words: Application of the iodine formulation by root application (hydroponic nutritive solution), iodine content by optical emission spectrometry. The class given is in vivo. Particulars: 36 μg I/L of nutritive solution, harvested after 15 days, lettuce aerial part. Here is the method:
as §1, §2
The plants were grown in recipients containing 5 L of nutritive solution added with iodine salts obtained according to Example 1, or with the nutritive solution added with the formulation object of the patent. In both treatments, the applied iodine amount was the same: 36 μg I/L of nutritive solution. The plants were then grown in controlled conditions in a growth chamber: • 07.00-12.00: T 24° C., RH 60%, Light Int. 300 μmol/m^2/s; • 12.00-16.00: T 25° C., RH 60%, Light Int. 400 μmol/m^2/s; • 16.00-20.00: T 24° C., RH 60%, Light Int. 300 μmol/m^2/s; • 20.00-07.00: T 23° C., RH 60%, Light Int. 0 μmol/m^2/s.
After 15 days the plants were harvested and the aerial part was weighted. Each plant was washed with deionized water and dried in oven at 105° C. overnight. […]

`[I-].[K+]` [KI salt, potassium iodide]: in experiment [1], the iodine absorption efficiency was found to be 40% and the “iodine content in the food” value came out at 36 μg/100 g fresh weight. Besides, in experiment [2], the iodine absorption efficiency came out at 46% and the “iodine content in the food” value was found to be 55 μg/100 g fresh weight.
